Experiments:
Type in all cases: cell-based
[1] = test system: HeLa, HCC1937 EV and MDA-MB-436 EV cells; experiment: Cell cycle analysis (propidium iodide, flow cytometry); details: HeLa, HCC1937 EV and MDA-MB-436 EV cells; IC-50 doses; FIG. 14
Experimental: For analysis of effects of ATM, ATR and DNAPK on cytokine expression, cells were seeded in six well plates at ˜60% confluency. Following incubation overnight, small molecule inhibitors of ATM (Ku60019, Selleck Chem) at a dose of 1 μm, ATR (ETP46464, Selleck Chem) at a dose of 5 μm and DNAPK (Nu7441, Selleck Chem) at a dose of 5 μm were added. At 24 hours, RNA and protein samples were obtained for analysis. For analysis of the effects of DNA damaging agents and paclitaxel on cytokine expression, cells were seeded in six well plates at ˜60% confluency. Following incubation overnight, IC50 doses of Cisplatin and Paclitaxel (obtained from fresh Pharmacy stock) and Hydroxyurea (Sigma Aldrich) were added for 24 hours to 48 hours. At the appropriate timepoint, RNA and protein samples were obtained for analysis.
Cells were trypsinised and fixed in 70% ethanol, incubated with RNase A and propidium iodide (P1) and analysed using a BD FACSCalibur™ (BD Biosciences, CA, USA). Data was analysed using Flow Jo software to perform cell cycle analysis.

cGAS bound to Histone H3 = experiment: Co-immunoprecipitation of cGAS with Histone H3 in cytosolic fraction; details: HeLa cells, not observed in DMSO treated control, FIG. 18B
Experimental: Cells were fractionated using Buffer A (10 mM Hepes pH7.4; […] MgCl2, 10 mM NaCl, 0.1% NP-40, Protease and Phosphatase inhibitors) and Buffer C (10 mM Hepes pH7.4; […], 420 mM NaCl, 0.1% NP-40, Protease and Phosphatase inhibitors). Cells were cultured at ˜70% confluency. Cells were then removed in PBS using a cell scraper and transferred to an Eppendorf. Following centrifugation at 1000 rpm at 4° C. for 5 minutes, cell pellets were resuspended in 350 μl Buffer A. Cells were lysed on ice for twenty minutes, following which samples were centrifuged at 12000 rpm for 2 minutes. Supernatants were removed, and spun a further two times at 12000 rpm for 2 minutes. The supernatant (cytoplasmic fraction) was carefully removed and stored at −80° C. until quantification using the BCA Assay (Pierce, Rockford, Ill., USA) according to manufacturer's instructions using a plate reader. The remaining pellet was washed ×1 in Buffer A, then centrifuged at 12000 rpm for 2 minutes. […] Samples were then centrifuged at 12000 rpm for two minutes to remove debris, and supernatant (nuclear fraction) stored at −80° C. until quantification as described above.
Cytoplasmic fractions were prepared as described above. […] Results were then visualized and recorded using Luminata Crescendo Western HRP substrate (Millipore, UK) and an alpha imager.

cytosolic Histone H3 = experiment: Western blot of Histone H3 in cytosolic fractions; details: HeLa cells; compared to DMSO control treatment; FIG. 19B
Text: Adherent cells formed whole cell lysates suspended in RIPA buffer containing phosphatase and protease inhibitors (Roche Inhibitor cocktails, Germany). Lysates were then spun to eliminate cell debris. Protein was quantified using the BCA Assay (Pierce, Rockford, Ill., USA) according to manufacturer's instructions using a plate reader. […] Results were then visualized and recorded using Luminata Crescendo Western HRP substrate (Millipore, UK) and an alpha imager.
Cells were fractionated using Buffer A (10 mM Hepes pH7.4; […] MgCl2, 10 mM NaCl, 0.1% NP-40, Protease and Phosphatase inhibitors) and Buffer C (10 mM Hepes pH7.4; […], 420 mM NaCl, 0.1% NP-40, Protease and Phosphatase inhibitors). […] The supernatant (cytoplasmic fraction) was carefully removed and stored at −80° C. until quantification using the BCA Assay (Pierce, Rockford, Ill., USA) according to manufacturer's instructions using a plate reader. […] Samples were then centrifuged at 12000 rpm for two minutes to remove debris, and supernatant (nuclear fraction) stored at −80° C. until quantification as described above.

[2] = test system: HCC1937 parental and HCC1937-BR cells; experiment: Cell viability assay (CellTitre-Glo), determination of cisplatin sensitivity; details: HCC1937 BRCA1 mutant cell-line relative to BRCA1 corrected cell-line (HCC1937-BR); FIG. 8D
Experimental: For measurement of sensitivity to cisplatin, exponentially growing cells were seeded into 96-well plates. […] Cells were incubated in the presence of drug for 96 hours following which time the viability of the cells was assessed using the Promega CellTitre-Glo luminescent cell viability assay. The sensitivity of the cells was calculated as the percentage of vehicle (DMSO) control.

Structure (SMILES)	cell cycle distribution [1]	binding of cGAS to Histone H3 (co-IP) (cGAS bound to Histone H3)	Histone H3 protein levels in cytosolic fraction (cytosolic Histone H3)	sensitivity to cisplatin (cell viability) [2]
NC(=O)NO [hydroxyurea, Hydroxyurea]	increased proportion of cells in S phase	cGAS was again bound to Histone H3	increased Histone H3 protein levels	
N.N.[Cl][Pt][Cl] [cisplatin]	increased proportion of cells in S phase	cGAS was again bound to Histone H3	increased Histone H3 protein levels	more sensitive
